Here are results for 29 molecules from EP3256120B1, “PSORALEN DERIVATIVES AS NON-PEPTIDIC INHIBITORS OF CHYMOTRYPSIN-LIKE ACTIVITY OF THE IMMUNOPROTEASOME” (Univerza v Ljubljani, priority 2015, dated 2016).

Series [1] addresses T1, β5i subunit of human immunoproteasome (Homo sapiens, UniProt P28062).
T1 construct: purchased Boston Biochem, Inc., Cambridge, MA, USA
The experiment in a line: Evaluation of reversible inhibitors of the β5i subunit (mode of inhibition and Ki, Dixon plots). The class given is biochemical. The settings on record: competitive inhibitors (footnote b), Suc-LLVY-AMC 12.5 µM to 125 µM, immunoproteasome 0.25 µg/mL. As to the method:
The test compounds from the preliminary inhibitory assay with residual activities equal to or lower than 60% were characterized further by determining the mode of inhibition (competitive, non-competitive, uncompetitive, mixed inhibition). The assays were performed as described above. Five or more different concentrations of the test compounds ranging from 0.1 µM to 100 µM were used to determine the kinetic parameters at four different substrate concentrations (Suc-LLVY-AMC ranging from 12.5 µM to 125 µM). Final concentration of the immunoproteasome remained the same as before (0.25 µg/mL). The results obtained were analyzed as outlined above (see Equations 1 and 2), and two plots were derived using Microsoft Office Excel 2007:
- 1/v plotted against inhibitor concentration (Dixon plot; v- velocity, equal to the slope of the line k),
- [S]/v plotted against different concentrations of inhibitor ([S] equals substrate concentration).
The mode of inhibition was estimated from the relative positions of the lines obtained.

The target in series [2] is T1, β5i subunit of human immunoproteasome. In words: Preliminary evaluation of inhibition of the β5i subunit (residual activity, Suc-LLVY-AMC fluorescence). The settings on record: test compound 10 µM, 30 min preincubation at 37 °C, Suc-LLVY-AMC 25 µM, immunoproteasome 0.25 µg/mL. The class given is biochemical. As to the method: Appropriate stock solutions (mM concentration) of the test compounds were prepared in DMSO. Subsequent dilutions of the compounds, as well as the immunoproteasome and the substrate were prepared in buffered solution (50 mM Tris-HCI (pH 8.0), 0.5 mM EDTA, 0.01% SDS). To a 96-well black microtiter plate, human immunoproteasome (final concentration, 0.25 µg/mL) (Boston Biochem, Inc., Cambridge, MA, USA) was added, followed by either test compounds (10 µM final concentration) or buffered solution (with and without the DMSO), which accounted for the control group. Microtiter plate was covered with aluminum foil and incubated at 37 °C for 30 minutes with medium agitation. The reaction was initiated by the addition of β5- and β5i-selective substrate Suc-LLVY-AMC (25 µM final concentration). The reaction progress was recorded on the BioTek Synergy HT microplate reader by monitoring fluorescence at 460 nm (λex = 360 nm) every 5 minutes for 120 min at 37 °C. At least two independent experiments were performed. The initial linear ranges (between 20th and 60th minute) were used to calculate the slope of the line (k) by dividing the difference of fluorescence intensities (F) with the time difference (t) (Equation 1). The residual activities in percentages were calculated from the slopes obtained (Equation 2). The calculations were performed in Microsoft Office Excel 2007. k = ΔF/Δt [formula] • k slope of the line • F fluorescence intensity • t time (min) Residualactivityin% = kt /knt *100% [formula] • kt slope of the line for the treated enzyme • knt slope of the line for the non-treated enzyme

For series [3] the target is unchanged. The experiment in a line: Evaluation of irreversible inhibitors of the β5i subunit (IC50). The class given is biochemical. The settings on record: Suc-LLVY-AMC 25 µM, immunoproteasome 0.25 µg/mL, fluorescence increase between 20th and 60th minute. As to the method: The test compounds with time-dependent inhibitory activities were treated and evaluated as irreversible inhibitors. The assay was performed as described in the 44 section Preliminary evaluation of inhibition of the β5i subunit of human immunoproteasome. At least seven different concentrations of the test compounds ranging from 0.001 µM to 50 µM were used. The final concentrations of the substrate Suc-LLVY-AMC and the immunoproteasome were 25 µM and 0.25 µg/mL, respectively. At least two independent experiments were performed. The increases in fluorescence intensity between 20th and 60th minute and appropriate test compounds concentrations were analyzed with GraphPad Prism 5.01 to determine the IC50 values. Table 1. Inhibitory potencies of reversible psoralen-based inhibitors against the β5i subunit of the human immunoproteasome. The following compounds are not part of the invention.

In series [4] the test system is other catalytic subunits (β1, β1i, β2, β2i). The settings on record: cited from earlier work.
Series [5] addresses β5i (Homo sapiens, UniProt P28062). The note with it: inhibition of the β5i; Singh A.V. et al. 2011; cited from earlier work.
The subject of series [6] is normal peripheral blood mononuclear cells. The note with it: exposure to high (up to 20 µM) concentrations; cited from earlier work.
The target in series [7] is proteasomal β5 (Homo sapiens, UniProt P28074). The note with it: Singh A.V. et al. 2011; cited from earlier work.
The subject of series [8] is MHC-I receptors on the surface. The note with it: Muchamuel T. et al. 2009; cited from earlier work.

The molecule `Cc1c(CC(=O)O)c(=O)oc2cc3occ(-c4ccccc4)c3cc12` had a Ki in series [1] of 2.4 µM.

The molecule `Cc1c(CCC(=O)O)c(=O)oc2cc3occ(-c4ccccc4)c3cc12` showed an inhibition constant Ki in series [1] of 1.6 µM. On the same count and under the same terms, under `Cc1c(CC(=O)O)c(=O)oc2cc3occ(-c4ccc(Br)cc4)c3cc12` stands 12.7 µM; under `Cc1c(CCC(=O)O)c(=O)oc2cc3occ(-c4ccc(Br)cc4)c3cc12`, 137 µM.

In series [1], `COc1ccc(-c2coc3cc4oc(=O)c(CC(=O)O)c(C)c4cc23)cc1` returned a Ki of 8.2 µM.

In the case of `COc1ccc(-c2coc3cc4oc(=O)c(CCC(=O)O)c(C)c4cc23)cc1`, the “RA (%)” value in series [2] is on record as 84%.

As to `COc1cccc(-c2coc3cc4oc(=O)c(CC(=O)O)c(C)c4cc23)c1`, in series [1], affinity was put at a Ki of 7 µM. Still for that read-out and setting: as for `COc1cccc(-c2coc3cc4oc(=O)c(CCC(=O)O)c(C)c4cc23)c1`, the figure is 29.6 µM; as for `Cc1c(CC(=O)O)c(=O)oc2cc3occ(C4CCCCC4)c3cc12`, 198 µM. For the molecule `Cc1c(CCC(=O)O)c(=O)oc2cc3occ(C4CCCCC4)c3cc12`, the “RA (%)” value in series [2] came out at 102%. Regarding `Cc1cc(-c2coc3cc4oc(=O)c(CC(=O)O)c(C)c4cc23)c(C)s1`, in series [1], the Ki was found to be 36.5 µM. On the same count and under the same terms, under `Cc1cc(-c2coc3cc4oc(=O)c(CCC(=O)O)c(C)c4cc23)c(C)s1` stands 52.3 µM; under `Cc1cc(-c2coc3cc4oc(=O)c(CC(=O)O)c(C)c4cc23)c(C)o1`, 351 µM. On to `Cc1cc(-c2coc3cc4oc(=O)c(CCC(=O)O)c(C)c4cc23)c(C)o1`, for which the “RA (%)” value in series [2] turned out to be 100%. Molecule `Cc1c(CC(=O)O)c(=O)oc2cc3occ(-c4ccco4)c3cc12` registered a Ki in series [1] of 89.3 µM.

`Cc1c(CCC(=O)O)c(=O)oc2cc3occ(-c4ccco4)c3cc12` returned a Ki in series [1] of 116 µM. In the case of `Cc1c(C(=O)O)c(=O)oc2cc3occ(-c4ccccc4)c3cc12`, in series [2], the “RA (%)” value is 82%.

On to `O=C(O)Cc1cc2cc3c(-c4ccccc4)coc3cc2oc1=O`, for which, in series [1], the Ki is 3.8 µM.

As for `Cc1c(N)c(=O)oc2cc3occ(-c4ccccc4)c3cc12`, in series [2], the “RA (%)” value was 88%. Regarding `Cc1c(CN)c(=O)oc2cc3occ(-c4ccccc4)c3cc12`, the Ki in series [1] was 39.6 µM. `Cc1c(CC(=O)ON2C(=O)CCC2=O)c(=O)oc2cc3occ(-c4ccccc4)c3cc12` showed an IC50 in series [3] of 6.4 µM. Same read-out and setting: as for `Cc1c(CCC(=O)ON2C(=O)CCC2=O)c(=O)oc2cc3occ(-c4ccccc4)c3cc12`, the figure is 0.09 µM; as for `C=CC(=O)Nc1c(C)c2cc3c(-c4ccccc4)coc3cc2oc1=O`, 20.5 µM. As for `CC1=C(C(=O)N[C@H](C)C(=O)N[C@@H](Cc2c[nH]c3ccccc23)C(=O)N[C@@H](Cc2ccccc2)C(=O)[C@@]2(C)CO2)Cc2ccccc21` [PR-924], the “inhibition of other catalytic subunits” value in series [4] is “little or no inhibition”. The concentration for half-maximal inhibition (IC50) in series [5] is 0.022 µM. The “toxicities in normal peripheral blood mononuclear cells” value in series [6] was “no significant toxicities”. For the same molecule, the “selectivity for inhibition of the β5i over proteasomal β5” value in series [7] was over 100 fold. Regarding `COc1ccc(C[C@H](NC(=O)[C@H](C)NC(=O)CN2CCOCC2)C(=O)N[C@@H](Cc2ccccc2)C(=O)[C@@]2(C)CO2)cc1` [PR-957], the “reduction of the expression of MHC-I receptors on the surface to” value in series [8] was 50%. Consider `Cc1coc2cc3oc(=O)c(CC(=O)O)c(C)c3cc12` [n=1, 1R=Me], for which the “RA (%)” value in series [2] is reported as 88%. On to `Cc1c(CC(=O)O)c(=O)oc2cc3occ(C(C)(C)C)c3cc12` [n=1, 1R=t-Bu], for which, in series [2], the “RA (%)” value stood at 85%.

For `Cc1coc2cc3oc(=O)c(CCC(=O)O)c(C)c3cc12` [n=2, 1R=Me], the “RA (%)” value in series [2] is on record as 94%. Consider `Cc1c(CCC(=O)O)c(=O)oc2cc3occ(C(C)(C)C)c3cc12` [n=2, 1R=t-Bu], for which the “RA (%)” value in series [2] was found to be 83%.
